Reference: US7871999B2, “Substituted thiazoles and their use for producing drugs” (Gruenenthal GmbH, priority 2005, dated 2011)

Key:
mGluR5 receptor [1] = molecular target: T1, mGluR5 receptor (Sus scrofa, UniProt I3LUI7); assay: Inhibition of [^3H]-MPEP binding in the mGluR5 receptor binding assay (pig brain homogenate); settings: 5 nM [^3H]-MPEP; for inhibition at 1 µM: 1 μM test compound; for inhibition at 10 µM: 10 μM test compound
T1 construct: pig brain hemispheres without medulla, cerebellum and pons ... differential centrifugation at 900×g and 40,000×g
Method: I. Method for Determining the Inhibition of [^3H]-MPEP Binding in the mGluR5 Receptor Binding Assay […]
The batches are then filtered with the assistance of a Brandel Cell Harvester (Brandel, Robotic 9600 model) on Unifilter plates with glass filter mats (Perkin Elmer, order number 6005177) and then washed 3 times with buffer (as above) using 250 μl per sample. The filter plates are then dried for 60 min at 55° C. Then 30 μl of Ultima Gold™ scintillating material (Packard BioScience, order number 6013159) is added per well and after 3 hours the samples are measured using the β counter (Microbeta, Perkin Elmer). Nonspecific binding is determined by the addition of 10 μM MPEP (Tocris, order number 1212).

mGluR5 receptor [2] = molecular target: T2, mGluR5 receptor (Homo sapiens, UniProt P41594); assay: Functional Ca^2+ influx assay in the mGluR5 receptor assay (CHO-hmGluR5 cells, DHPG 10 μM); type: cell-based; settings: Ki=IC50/(1+(AGconc./EC50))
T2 construct: host or cells: CHO cells (CHO-hmGluR5), incubated overnight with doxycycline
Text: II. Method for Determining Ca^2+ Influx in the mGluR5 Receptor Assay
[…] According to this assay, intracellular Ca^2+ release is quantified after activation of the mGluR5 receptor with the assistance of a Ca^2+-sensitive dye (type Fluo-4, Molecular Probes Europe BV, Leiden, Netherlands) in a FlexStation (Molecular Devices, Sunnyvale, USA).
Description of the Functional Ca^2+ Influx Assay
20,000 CHO-hmGluR5 cells/well (Euroscreen, Gosselies, Belgium) are pipetted out into 96 well plates (BD Biosciences, Heidelberg, Germany, Ref. 356640, clear bottom, 96 well, poly-D-lysine) and incubated overnight in HBSS buffer (Gibco No. 14025-050) with the following additives: 10% FCS (GIBCO, 10270-106) and doxycycline (BD Biosciences Clontech 631311 600 ng/ml).
For the purpose of functional investigation, the cells were loaded with 2 μM Fluo-4 and 0.01 vol. % Pluronic F127 (Molecular Probes Europe BV, Leiden, Netherlands) in HBSS buffer (Hank's buffered saline solution, Gibco Invitrogen GmbH, Karlsruhe, Germany) with Probenicid (Sigma P8761, 0.69 mg/ml) for 30 min at 37° C.
The cells are then washed 3 times with washing buffer (HBSS buffer, Gibco No. 14025-050, with Probenicid (Sigma P8761, 0.69 mg/ml) and then resuspended with the same buffer to make up to 100 μl. After 15 min, the plates are transferred for determination of Ca^2+ measurements in the presence of DHPG ((S)-3,5-dihydroxyphenylglycine, Tocris Biotrend Chemikalien GmbH, Cologne, Germany, final DHPG concentration: 10 μM) and in the presence or absence of test substances into a FLuorometric Imaging Plate Reader (FLIPR, Molecular Devices, Sunnyvale, Calif.).
Ca^2+-dependent fluorescence is measured before and after addition of test substances. Quantification proceeds by measuring the highest fluorescence intensity over time.
After recording a fluorescence baseline for 10 s, 50 μl of test substance solution (various test substance concentrations in HBSS buffer with 1% DMSO and 0.02% Tween 20, Sigma) are added and the fluorescence signal is measured for 6 min. Then, 50 μl of DHPG solution ((S)-3,5-dihydroxyphenylglycine, Tocris Biotrend Chemikalien GmbH, Cologne, Germany, final DHPG concentration: 10 μM) are added and Ca^2+ influx is simultaneously measured for 60 s. The final DMSO concentration amounts to 0.25% and the final Tween 20 content amounts to 0.005%. The data are analysed with Microsoft Excel and GraphPad Prism. The dose-response curves are calculated with non-linear regression and IC50 values are determined. Each data point is determined in triplicate and IC50 values are averaged from a minimum of 2 independent measurements.
Ki values are calculated using the following formula: Ki=IC50/(1+(AGconc./EC50)).
AGconc.=10 μM; EC50 corresponds to the DHPG concentration which is necessary for the semimaximal influx of Ca^2+.

T1 sequence (I3LUI7 1-1212): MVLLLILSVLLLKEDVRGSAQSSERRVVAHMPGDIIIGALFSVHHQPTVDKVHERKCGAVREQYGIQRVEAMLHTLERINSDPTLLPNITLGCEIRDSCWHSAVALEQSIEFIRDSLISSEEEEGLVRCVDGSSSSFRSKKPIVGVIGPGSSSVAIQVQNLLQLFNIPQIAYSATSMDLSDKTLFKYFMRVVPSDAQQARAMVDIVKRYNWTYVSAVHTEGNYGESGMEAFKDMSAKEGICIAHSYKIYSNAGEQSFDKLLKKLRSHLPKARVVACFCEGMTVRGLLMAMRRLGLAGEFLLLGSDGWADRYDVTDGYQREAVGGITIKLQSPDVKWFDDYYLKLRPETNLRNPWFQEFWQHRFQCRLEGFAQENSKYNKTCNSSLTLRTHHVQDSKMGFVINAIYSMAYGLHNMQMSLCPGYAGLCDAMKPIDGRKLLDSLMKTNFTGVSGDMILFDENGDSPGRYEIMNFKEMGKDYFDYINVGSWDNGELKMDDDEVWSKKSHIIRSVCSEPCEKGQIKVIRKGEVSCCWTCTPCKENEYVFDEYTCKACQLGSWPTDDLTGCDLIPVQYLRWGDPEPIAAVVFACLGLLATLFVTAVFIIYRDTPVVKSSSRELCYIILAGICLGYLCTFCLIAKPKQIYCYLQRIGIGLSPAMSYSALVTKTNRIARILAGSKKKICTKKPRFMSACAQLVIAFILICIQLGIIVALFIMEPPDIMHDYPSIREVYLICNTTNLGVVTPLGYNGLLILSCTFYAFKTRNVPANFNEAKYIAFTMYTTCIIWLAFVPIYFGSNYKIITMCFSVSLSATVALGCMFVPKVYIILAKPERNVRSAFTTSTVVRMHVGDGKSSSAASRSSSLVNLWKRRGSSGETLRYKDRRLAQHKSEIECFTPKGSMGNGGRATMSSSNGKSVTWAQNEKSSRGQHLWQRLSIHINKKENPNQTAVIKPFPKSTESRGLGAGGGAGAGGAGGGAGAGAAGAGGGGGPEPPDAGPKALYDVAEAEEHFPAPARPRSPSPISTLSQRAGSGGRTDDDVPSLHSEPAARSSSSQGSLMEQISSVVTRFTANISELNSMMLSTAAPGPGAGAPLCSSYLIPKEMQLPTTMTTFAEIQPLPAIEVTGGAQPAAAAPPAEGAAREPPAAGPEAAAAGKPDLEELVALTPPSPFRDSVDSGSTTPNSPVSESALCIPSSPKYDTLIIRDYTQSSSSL
T2 sequence (P41594 21-1212): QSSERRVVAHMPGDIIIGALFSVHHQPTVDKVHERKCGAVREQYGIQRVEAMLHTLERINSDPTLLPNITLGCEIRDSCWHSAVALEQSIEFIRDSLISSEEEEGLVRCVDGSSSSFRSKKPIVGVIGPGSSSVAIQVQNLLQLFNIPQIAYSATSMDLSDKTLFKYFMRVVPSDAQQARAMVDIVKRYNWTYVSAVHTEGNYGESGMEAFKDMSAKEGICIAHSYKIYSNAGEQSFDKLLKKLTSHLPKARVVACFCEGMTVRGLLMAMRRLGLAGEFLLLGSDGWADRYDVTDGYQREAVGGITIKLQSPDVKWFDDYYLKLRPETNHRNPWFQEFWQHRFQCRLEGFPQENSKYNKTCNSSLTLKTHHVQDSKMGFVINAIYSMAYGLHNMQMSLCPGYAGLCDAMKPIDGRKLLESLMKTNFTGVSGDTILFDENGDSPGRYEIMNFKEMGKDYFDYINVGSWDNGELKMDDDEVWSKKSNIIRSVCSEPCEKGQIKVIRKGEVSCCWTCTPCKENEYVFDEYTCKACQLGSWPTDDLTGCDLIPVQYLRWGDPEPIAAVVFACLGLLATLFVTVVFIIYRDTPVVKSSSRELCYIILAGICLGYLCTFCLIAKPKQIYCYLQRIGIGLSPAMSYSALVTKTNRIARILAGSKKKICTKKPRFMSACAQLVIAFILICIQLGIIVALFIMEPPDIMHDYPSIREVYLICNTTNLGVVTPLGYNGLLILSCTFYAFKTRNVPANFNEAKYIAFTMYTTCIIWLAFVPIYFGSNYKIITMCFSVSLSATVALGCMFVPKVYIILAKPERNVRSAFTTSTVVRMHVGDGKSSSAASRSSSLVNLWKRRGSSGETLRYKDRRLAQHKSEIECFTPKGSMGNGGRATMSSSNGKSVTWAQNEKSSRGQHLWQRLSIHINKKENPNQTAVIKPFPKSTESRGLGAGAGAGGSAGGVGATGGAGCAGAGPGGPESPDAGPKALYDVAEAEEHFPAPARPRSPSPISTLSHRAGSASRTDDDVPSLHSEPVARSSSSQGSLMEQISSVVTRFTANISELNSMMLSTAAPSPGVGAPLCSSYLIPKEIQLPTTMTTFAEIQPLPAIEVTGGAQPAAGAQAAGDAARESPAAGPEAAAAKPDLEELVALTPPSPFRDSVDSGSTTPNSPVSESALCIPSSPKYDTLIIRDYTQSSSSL

In the case of `CN(CCN(C)c1nccs1)C(=O)C#Cc1cccc(Cl)c1` [Example 18, N-Methyl-N-(2-(methyl(thiazol-2-yl)amino)ethyl)-3-(3-chlorophenyl)-propiolamide], the IC50 (mGluR5 receptor [1]) is reported as 20 nM and the Ki (mGluR5 receptor [2]) is reported as 4.9 nM.

In the case of `CN(CCN(C)c1nccs1)C(=O)C#Cc1ccccc1` [Example 4, N-Methyl-N-(2-(methyl(thiazol-2-yl)amino)ethyl)-3-phenylpropiolamide], the IC50 (mGluR5 receptor [1]) is reported as 57 nM and the Ki (mGluR5 receptor [2]) is reported as 5.2 nM.

For `O=C(C#Cc1ccccc1)NC1CCCN(c2nccs2)C1` (stereo not shown) [Example 15, 3-Phenyl-N-(1-(thiazol-2-yl)piperidin-3-yl)propiolamide], the IC50 (mGluR5 receptor [1]) was 86 nM and the Ki (mGluR5 receptor [2]) was 14.4 nM.

`CN(c1nccs1)C1CN(C(=O)C#Cc2cccc(Cl)c2)C1` [Example 35, 1-(3-(3-Chlorophenyl)propioloyl)-3-(methyl(thiazol-2-yl)amino)azetidine] showed an IC50 (mGluR5 receptor [1]) of 2.2 nM and a Ki (mGluR5 receptor [2]) of 6.5 nM.

With `CN(CCNC(=O)C#Cc1cccc(Cl)c1)c1nccs1` [Example 19, N-(2-(Methyl(thiazol-2-yl)amino)ethyl)-3-(3-chlorophenyl)-propiolamide] the IC50 (mGluR5 receptor [1]) was 1.9 nM and the Ki (mGluR5 receptor [2]) was 0.4 nM.

In the case of `Cc1cccc(C#CC(=O)N(C)CCN(C)c2nccs2)c1` [Example 7, N-methyl-N-(2-(methyl(thiazol-2-yl)amino)ethyl)-3-(3-methylphenyl)-propiolamide], the IC50 (mGluR5 receptor [1]) is reported as 26 nM and the Ki (mGluR5 receptor [2]) is reported as 4.8 nM.

`CCOC(=O)c1csc(N(C)CCNC(=O)C#Cc2cccc(Cl)c2)n1` [Example 26, N-(2-(methyl-(4-ethoxycarbonylthiazol-2-yl)amino)ethyl)-3-(3-chlorophenyl)-propiolamide] gave an IC50 (mGluR5 receptor [1]) of 86 nM and a Ki (mGluR5 receptor [2]) of 3.6 nM.

In the case of `CN(CCNC(=O)C#Cc1cccc(Cl)c1)c1nc(Br)cs1` [Example 33, N-(2-((4-bromothiazol-2-yl)(methyl)amino)ethyl)-3-(3-chlorophenyl)propiolamide], the IC50 (mGluR5 receptor [1]) is reported as 13 nM and the Ki (mGluR5 receptor [2]) is reported as 10 nM.

With `O=C(C#Cc1cccc(Cl)c1)NC1CCCN(c2nccs2)C1` (stereo not shown) [Example 32, 3-(3-chlorophenyl)-N-(1-(thiazol-2-yl)piperidin-3-yl)-propiolamide] the IC50 (mGluR5 receptor [1]) was 5 nM and the Ki (mGluR5 receptor [2]) was 4 nM.

For `CN(CCNC(=O)C#Cc1ccccc1)c1nccs1` [Example 9, N-(2-(methyl(thiazol-2-yl)amino)ethyl)-3-phenylpropiolamide], the IC50 (mGluR5 receptor [1]) was 38 nM and the Ki (mGluR5 receptor [2]) was 1 nM.

`CN(CCN(C)c1nccs1)C(=O)C#Cc1cccc(C#N)c1` [Example 13, N-methyl-N-(2-(methyl(thiazol-2-yl)amino)ethyl)-3-(3-cyanophenyl)-propiolamide] was tested, and the IC50 (mGluR5 receptor [1]) was 87 nM and the Ki (mGluR5 receptor [2]) was 20.8 nM.

Work on `COc1ccc(C#CC(=O)NC2CCN(c3nc(C(C)(C)C)cs3)C2)cc1` (stereo not shown) [Example 55, N-(1-(4-tert.-butylthiazol-2-yl)pyrrolidin-3-yl)-3-(4-methoxyphenyl)propiolamide] yielded an inhibition at 1 µM (mGluR5 receptor [1]) of 26%.

`CN(CCNC(=O)C#Cc1cccc(Cl)c1)c1ncc(C#N)s1` [Example 42, 3-(3-chlorophenyl)-N-(2-((5-cyanothiazol-2-yl)(methyl)amino)ethyl)propiolamide] gave an IC50 (mGluR5 receptor [1]) of 220 nM.

Work on `Cc1cccc(C#CC(=O)NC2CCN(c3nc(C)c(C)s3)C2)c1` (stereo not shown) [Example 82, N-(1-(4,5-dimethylthiazol-2-yl)pyrrolidin-3-yl)-3-m-tolylpropiolamide] yielded an inhibition at 1 µM (mGluR5 receptor [1]) of 81%.

In the case of `O=C(C#Cc1ccccc1)NC1CCCCC1Nc1nccs1` (stereo not shown) [Example 6, 3-phenyl-N-(2-(thiazol-2-ylamino)cyclohexyl)propiolamide], the inhibition at 10 µM (mGluR5 receptor [1]) is reported as 57%.

`CN(C(=O)C#Cc1ccccc1)C1CN(c2nccs2)C1` [Example 20, N-methyl-N-(1-(thiazol-2-yl)azetidin-3-yl)-3-phenylpropiolamide] showed an IC50 (mGluR5 receptor [1]) of 280 nM.

For `CC(C)(C)c1csc(N2CCC(NC(=O)C#Cc3cccc(Cl)c3)C2)n1` (stereo not shown) [Example 100, N-(1-(4-tert.-butylthiazol-2-yl)pyrrolidin-3-yl)-3-(3-chlorophenyl)propiolamide], the inhibition at 1 µM (mGluR5 receptor [1]) was 38%.

Work on `Cc1cnc(N2CCC(NC(=O)C#Cc3ccccc3F)C2)s1` (stereo not shown) [Example 77, 3-(2-fluorophenyl)-N-(1-(5-methylthiazol-2-yl)pyrrolidin-3-yl)propiolamide] yielded an inhibition at 1 µM (mGluR5 receptor [1]) of 21%.

With `CN(CCNC(=O)C#Cc1cccc(Cl)c1)c1nc2ccccc2s1` [Example 24, N-(2-(benzo[d]thiazol-2-yl(methyl)amino)ethyl)-3-(3-chlorophenyl)-propiolamide] the IC50 (mGluR5 receptor [1]) was 2780 nM.

In the case of `Cc1cnc(N2CCC(NC(=O)C#Cc3ccccn3)C2)s1` (stereo not shown) [Example 119, N-(1-(5-methylthiazol-2-yl)pyrrolidin-3-yl)-3-(pyridin-2-yl)propiolamide], the inhibition at 10 µM (mGluR5 receptor [1]) is reported as 20%.

`CC(C)(C)c1csc(N2CCC(NC(=O)C#Cc3cccc(F)c3)C2)n1` (stereo not shown) [Example 59, N-(1-(4-tert.-butylthiazol-2-yl)pyrrolidin-3-yl)-3-(3-fluorophenyl)propiolamide] showed an inhibition at 1 µM (mGluR5 receptor [1]) of 34%.

`CN(CC(=O)N(C)c1nccs1)C(=O)C#Cc1ccccc1` [Example 14, N-Methyl-N-(2-(methyl(thiazol-2-yl)amino)-2-oxoethyl)-3-phenylpropiolamide] showed an IC50 (mGluR5 receptor [1]) of 4970 nM.

With `O=C(C#Cc1ccccc1)N1CCCN(c2nccs2)CC1` [Example 3, 1-Thiazol-2-yl-4-(3-phenylpropioloyl)-1,4-diazepane] the IC50 (mGluR5 receptor [1]) was 590 nM.

In the case of `Cc1cccc(C#CC(=O)NC2CCN(c3nc(C(C)(C)C)cs3)C2)c1` (stereo not shown) [Example 99, N-(1-(4-tert.-butylthiazol-2-yl)pyrrolidin-3-yl)-3-m-tolylpropiolamide], the inhibition at 1 µM (mGluR5 receptor [1]) is reported as 46%.

`O=C(C#Cc1ccccc1)N1CCC(Nc2nccs2)C1` (stereo not shown) [Example 11, 3-(Thiazol-2-yl-amino)-1-(3-phenylpropioloyl)pyrrolidine] showed an IC50 (mGluR5 receptor [1]) of 2180 nM.

Compound `CN(CCNC(=O)C#Cc1cccc(Cl)c1)c1ncc(Cl)s1` [Example 38, 3-(3-chlorophenyl)-N-(2-((5-chlorothiazol-2-yl)(methyl)amino)ethyl)-propiolamide] has an IC50 (mGluR5 receptor [1]) of 160 nM.

In the case of `Cc1csc(N2CCC(NC(=O)C#Cc3cccc(Cl)c3)C2)n1` (stereo not shown) [Example 105, 3-(3-chlorophenyl)-N-(1-(4-methylthiazol-2-yl)pyrrolidin-3-yl)propiolamide], the inhibition at 10 µM (mGluR5 receptor [1]) is reported as 83%.

With `CN(CCNC(=O)C#Cc1cccc(Cl)c1)c1ncc(Br)s1` [Example 31, N-(2-((5-Bromothiazol-2-yl)(methyl)amino)ethyl)-3-(3-chlorophenyl)propiolamide] the IC50 (mGluR5 receptor [1]) was 13 nM.

With `Cc1ccc(C#CC(=O)NC2CCN(c3ncc(C)s3)C2)cc1` (stereo not shown) [Example 73, N-(1-(5-methylthiazol-2-yl)pyrrolidin-3-yl)-3-p-tolylpropiolamide] the inhibition at 1 µM (mGluR5 receptor [1]) was 18%.

`O=C(C#Cc1ccccc1)NCCNc1nccs1` [Example 5, N-(2-((thiazol-2-yl)amino)ethyl)-3-phenylpropiolamide] gave an IC50 (mGluR5 receptor [1]) of 1580 nM.

In the case of `CN(C(=O)C#Cc1cccc(Cl)c1)C1CN(c2nccs2)C1` [Example 40, 3-(3-chlorophenyl)-N-methyl-N-(1-(thiazol-2-yl)azetidin-3-yl)-propiolamide], the IC50 (mGluR5 receptor [1]) is reported as 17 nM.

Compound `CC(C)(C)c1csc(N2CCC(NC(=O)C#Cc3cccnc3)C2)n1` (stereo not shown) [Example 123, N-(1-(4-tert.-butylthiazol-2-yl)pyrrolidin-3-yl)-3-(pyridin-3-yl)propiolamide] has an inhibition at 1 µM (mGluR5 receptor [1]) of 20%.
